For the experiment, the target named is Beta-secretase 1 (Homo sapiens) (UniProt P56817). As to the kind of experiment: Activity of recombinant BACE assessed as retention time of substrate by HPLC method.

The source of these data is ChEMBL document CHEMBL1773037, “Evaluation of superior BACE1 cleavage sequences containing unnatural amino acids” (Bioorg Med Chem, 2011).

The structures appear in SMILES notation. Starred links: 1 amine or outer side, 2 acyl side, 3 side chain; linkers in the order of their positions; H or OH if unused. Non-standard residues stand in square brackets, D forms with d. Residues, ends and D or L forms follow the SMILES beside them. X1 = O=C(O)[C@@H]1Cc2ccccc2CN1[C@H](N[*:1])C(=O)[*:2]; 2Thi = N[C@@H](Cc1cccs1)C(=O)O; Cha = N[C@@H](CC1CCCCC1)C(=O)O; Cit = NC(=O)NCCC[C@H](N)C(=O)O; Phg = N[C@H](C(=O)O)c1ccccc1; Tle = CC(C)(C)[C@H](N)C(=O)O; Abu = CC[C@H](N)C(=O)O

Beta-secretase 1 (Homo sapiens), sequence (P56817 whole entry): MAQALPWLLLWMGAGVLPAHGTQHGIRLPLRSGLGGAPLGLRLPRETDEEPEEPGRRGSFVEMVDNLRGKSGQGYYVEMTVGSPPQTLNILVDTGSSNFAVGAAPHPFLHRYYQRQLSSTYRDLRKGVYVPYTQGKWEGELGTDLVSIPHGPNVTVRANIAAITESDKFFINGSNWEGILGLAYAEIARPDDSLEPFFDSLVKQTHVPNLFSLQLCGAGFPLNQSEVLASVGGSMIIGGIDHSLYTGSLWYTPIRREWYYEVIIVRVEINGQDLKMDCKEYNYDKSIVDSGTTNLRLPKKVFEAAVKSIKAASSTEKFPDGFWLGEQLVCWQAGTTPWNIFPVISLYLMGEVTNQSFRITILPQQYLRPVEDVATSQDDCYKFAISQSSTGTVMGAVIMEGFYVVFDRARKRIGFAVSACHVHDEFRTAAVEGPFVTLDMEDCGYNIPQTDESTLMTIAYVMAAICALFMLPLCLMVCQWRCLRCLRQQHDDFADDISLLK

Take `CC[C@H](C)[C@H](N)C(=O)N[C@@H](CO)C(=O)N[C@@H](CC(=O)O)C(=O)N[C@H](C(=O)N[C@@H](CC(N)=O)C(=O)N[C@@H](CC(C)C)C(=O)N[C@@H](CC(=O)O)C(=O)N[C@@H](C)C(=O)N[C@@H](CCC(=O)O)C(=O)N[C@@H](Cc1ccccc1)C(=O)N[C@@H](CCCNC(=N)N)C(=O)N[C@@H](Cc1cnc[nH]1)C(N)=O)C(C)C` (H-ISDVNLDAEFRH-NH2): the retention time was 0.474 h.
As to `CC[C@H](C)[C@H](N)C(=O)N[C@@H](CO)C(=O)N[C@@H](CCC(=O)O)C(=O)N[C@@H](CCC(=O)O)C(=O)N[C@@H](CC(N)=O)C(=O)N[C@@H](CC(C)C)C(=O)N[C@@H](CC(=O)O)C(=O)N[C@@H](C)C(=O)N[C@@H](CCC(=O)O)C(=O)N[C@@H](Cc1ccccc1)C(=O)N[C@@H](CCCNC(=N)N)C(=O)N[C@@H](Cc1cnc[nH]1)C(N)=O` (H-ISEENLDAEFRH-NH2), the retention time was determined as 0.457 h.
Consider `CC[C@H](C)[C@H](N)C(=O)N[C@@H](CO)C(=O)N[C@@H](CCC(=O)O)C(=O)N[C@H](C(=O)N[C@@H](Cc1cccs1)C(=O)N[C@@H](Cc1cccs1)C(=O)O)[C@@H](C)CC` (H-ISEI[2Thi][2Thi]-OH), for which the retention time turned out to be 0.63 h.
As to `CC[C@H](C)[C@H](N)C(=O)N[C@@H](CO)C(=O)N[C@@H](CCC(=O)O)C(=O)N[C@H](C(=O)N[C@@H](Cc1ccccc1)C(=O)N[C@@H](CC(C)C)C(=O)N[C@@H](CC(=O)O)C(=O)N[C@@H](C)C(=O)N[C@@H](CCC(=O)O)C(=O)N[C@@H](Cc1ccccc1)C(=O)N[C@@H](CCCNC(=N)N)C(=O)N[C@@H](Cc1cnc[nH]1)C(N)=O)C(C)C` (H-ISEVFLDAEFRH-NH2), the retention time turned out to be 0.565 h.
The result for `CC[C@H](C)[C@H](N)C(=O)N[C@@H](CO)C(=O)N[C@@H](CCC(=O)O)C(=O)N[C@H](C(=O)N[C@@H](CCCCN)C(=O)N[C@@H](CCSC)C(=O)N[C@@H](CC(=O)O)C(=O)N[C@@H](C)C(=O)N[C@@H](CCC(=O)O)C(=O)N[C@@H](Cc1ccccc1)C(=O)N[C@@H](CCCNC(=N)N)C(=O)N[C@@H](Cc1cnc[nH]1)C(N)=O)C(C)C` (H-ISEVKMDAEFRH-NH2) reads 0.419 h; that for `CC[C@H](C)[C@H](N)C(=O)N[C@@H](CO)C(=O)N[C@@H](CCC(=O)O)C(=O)N[C@H](C(=O)N[C@@H](CC(N)=O)C(=O)N[C@@H](CC(C)C)C(=O)N[C@@H](CCC(N)=O)C(=O)N[C@@H](C)C(=O)N[C@@H](CCC(=O)O)C(=O)N[C@@H](Cc1ccccc1)C(=O)N[C@@H](CCCNC(=N)N)C(=O)N[C@@H](Cc1cnc[nH]1)C(N)=O)C(C)C` (H-ISEVNLQAEFRH-NH2), 0.52 h.
The result for `CC[C@H](C)[C@H](N)C(=O)N[C@@H](CO)C(=O)N[C@@H](CCC(=O)O)C(=O)N[C@H](C(=O)N[C@@H](CC(N)=O)C(=O)N[C@@H](CC(C)C)C(=O)N[C@@H](Cc1cccs1)C(=O)N[C@@H](C)C(=O)N[C@@H](CCC(=O)O)C(=O)N[C@@H](Cc1ccccc1)C(=O)N[C@@H](CCCNC(=N)N)C(=O)N[C@@H](Cc1cnc[nH]1)C(N)=O)C(C)C` (H-ISEVNL[2Thi]AEFRH-NH2) reads 0.656 h; that for `CC[C@H](C)[C@H](N)C(=O)N[C@@H](CO)C(=O)N[C@@H](CCC(=O)O)C(=O)N[C@H](C(=O)N[C@@H](CC(N)=O)C(=O)N[C@@H](CC(C)C)C(=O)N[C@@H](CC1CCCCC1)C(=O)N[C@@H](C)C(=O)N[C@@H](CCC(=O)O)C(=O)N[C@@H](Cc1ccccc1)C(=O)N[C@@H](CCCNC(=N)N)C(=O)N[C@@H](Cc1cnc[nH]1)C(N)=O)C(C)C` (H-ISEVNL[Cha]AEFRH-NH2), 0.727 h; that for `CC[C@H](C)[C@H](N)C(=O)N[C@@H](CO)C(=O)N[C@@H](CCC(=O)O)C(=O)N[C@H](C(=O)N[C@@H](CC(N)=O)C(=O)N[C@@H](CC(C)C)C(=O)N[C@@H](CCCNC(N)=O)C(=O)N[C@@H](C)C(=O)N[C@@H](CCC(=O)O)C(=O)N[C@@H](Cc1ccccc1)C(=O)N[C@@H](CCCNC(=N)N)C(=O)N[C@@H](Cc1cnc[nH]1)C(N)=O)C(C)C` (H-ISEVNL[Cit]AEFRH-NH2), 0.536 h.
`CC[C@H](C)[C@H](N)C(=O)N[C@@H](CO)C(=O)N[C@@H](CCC(=O)O)C(=O)N[C@H](C(=O)N[C@@H](CC(N)=O)C(=O)N[C@@H](CC(C)C)C(=O)N[C@H](C(=O)N[C@@H](C)C(=O)N[C@@H](CCC(=O)O)C(=O)N[C@@H](Cc1ccccc1)C(=O)N[C@@H](CCCNC(=N)N)C(=O)N[C@@H](Cc1cnc[nH]1)C(N)=O)c1ccccc1)C(C)C` (H-ISEVNL[Phg]AEFRH-NH2): the retention time was 0.617 h.
As to `CC[C@H](C)[C@H](N)C(=O)N[C@@H](CO)C(=O)N[C@@H](CCC(=O)O)C(=O)N[C@H](C(=O)N[C@@H](CC(N)=O)C(=O)N[C@@H](CC(C)C)C(=O)N[C@H](C(=O)N[C@@H](C)C(=O)N[C@@H](CCC(=O)O)C(=O)N[C@@H](Cc1ccccc1)C(=O)N[C@@H](CCCNC(=N)N)C(=O)N[C@@H](Cc1cnc[nH]1)C(N)=O)C(C)(C)C)C(C)C` (H-ISEVNL[Tle]AEFRH-NH2), the retention time turned out to be 0.629 h.
Consider `CC[C@H](C)[C@H](N)C(=O)N[C@@H](CO)C(=O)N[C@@H](CCC(=O)O)C(=O)N[C@H](C(=O)N[C@@H](CC(N)=O)C(=O)N[C@@H](CC(C)C)C(=O)N[C@H](C(=O)N[C@@H](C)C(=O)N[C@@H](CCC(=O)O)C(=O)N[C@@H](Cc1ccccc1)C(=O)N[C@@H](CCCNC(=N)N)C(=O)N[C@@H](Cc1cnc[nH]1)C(N)=O)N1Cc2ccccc2C[C@H]1C(=O)O)C(C)C` (H-ISEVNL[X1]AEFRH-NH2), for which the retention time amounted to 0.648 h.
Take `CC[C@H](C)[C@H](N)C(=O)N[C@@H](CO)C(=O)N[C@@H](CCC(=O)O)C(=O)N[C@H](C(=O)N[C@@H](CC(N)=O)C(=O)N[C@@H](Cc1ccc(O)cc1)C(=O)N[C@@H](CC(=O)O)C(=O)N[C@@H](C)C(=O)N[C@@H](CCC(=O)O)C(=O)N[C@@H](Cc1ccccc1)C(=O)N[C@@H](CCCNC(=N)N)C(=O)N[C@@H](Cc1cnc[nH]1)C(N)=O)C(C)C` (H-ISEVNYDAEFRH-NH2): the retention time stood at 0.42 h.
For `CC[C@H](C)[C@H](N)C(=O)N[C@@H](CO)C(=O)N[C@@H](CCC(=O)O)C(=O)N[C@H](C(=O)N[C@@H](CC(N)=O)C(=O)N[C@H](C(=O)N[C@@H](CC(=O)O)C(=O)N[C@@H](C)C(=O)N[C@@H](CCC(=O)O)C(=O)N[C@@H](Cc1ccccc1)C(=O)N[C@@H](CCCNC(=N)N)C(=O)N[C@@H](Cc1cnc[nH]1)C(N)=O)N1Cc2ccccc2C[C@H]1C(=O)O)C(C)C` (H-ISEVN[X1]DAEFRH-NH2), the retention time is 0.502 h.
Regarding `CC[C@H](NC(=O)[C@@H](NC(=O)[C@H](CCC(=O)O)NC(=O)[C@H](CO)NC(=O)[C@@H](N)[C@@H](C)CC)C(C)C)C(=O)N[C@@H](CC(C)C)C(=O)N[C@@H](CC(=O)O)C(=O)N[C@@H](C)C(=O)N[C@@H](CCC(=O)O)C(=O)N[C@@H](Cc1ccccc1)C(=O)N[C@@H](CCCNC(=N)N)C(=O)N[C@@H](Cc1cnc[nH]1)C(N)=O` (H-ISEV[Abu]LDAEFRH-NH2), the retention time came out at 0.5 h.
The result for `CC[C@H](C)[C@H](N)C(=O)N[C@@H](CO)C(=O)N[C@@H](CCC(=O)O)C(=O)N[C@H](C(=O)N[C@@H](CC1CCCCC1)C(=O)N[C@@H](CC(C)C)C(=O)N[C@@H](CC(=O)O)C(=O)N[C@@H](C)C(=O)N[C@@H](CCC(=O)O)C(=O)N[C@@H](Cc1ccccc1)C(=O)N[C@@H](CCCNC(=N)N)C(=O)N[C@@H](Cc1cnc[nH]1)C(N)=O)C(C)C` (H-ISEV[Cha]LDAEFRH-NH2) reads 0.616 h.
Turning to `CC[C@H](C)[C@H](N)C(=O)N[C@@H](CO)C(=O)N[C@@H](CCC(=O)O)C(=O)N[C@H](C(=O)N[C@@H](CCCNC(N)=O)C(=O)N[C@@H](CC(C)C)C(=O)N[C@@H](CC(=O)O)C(=O)N[C@@H](C)C(=O)N[C@@H](CCC(=O)O)C(=O)N[C@@H](Cc1ccccc1)C(=O)N[C@@H](CCCNC(=N)N)C(=O)N[C@@H](Cc1cnc[nH]1)C(N)=O)C(C)C` (H-ISEV[Cit]LDAEFRH-NH2), the retention time was 0.482 h.
On to `CC[C@H](C)[C@H](N)C(=O)N[C@@H](CO)C(=O)N[C@@H](CCC(=O)O)C(=O)N[C@H](C(=O)N[C@H](C(=O)N[C@@H](CC(C)C)C(=O)N[C@@H](CC(=O)O)C(=O)N[C@@H](C)C(=O)N[C@@H](CCC(=O)O)C(=O)N[C@@H](Cc1ccccc1)C(=O)N[C@@H](CCCNC(=N)N)C(=O)N[C@@H](Cc1cnc[nH]1)C(N)=O)c1ccccc1)C(C)C` (H-ISEV[Phg]LDAEFRH-NH2), for which the retention time came to 0.541 h.
As for `CC[C@H](C)[C@H](N)C(=O)N[C@@H](CO)C(=O)N[C@@H](CCC(=O)O)C(=O)N[C@H](C(=O)N[C@H](C(=O)N[C@@H](CC(C)C)C(=O)N[C@@H](CC(=O)O)C(=O)N[C@@H](C)C(=O)N[C@@H](CCC(=O)O)C(=O)N[C@@H](Cc1ccccc1)C(=O)N[C@@H](CCCNC(=N)N)C(=O)N[C@@H](Cc1cnc[nH]1)C(N)=O)C(C)(C)C)C(C)C` (H-ISEV[Tle]LDAEFRH-NH2), the retention time turned out to be 0.531 h.
For `CC[C@H](C)[C@H](N)C(=O)N[C@@H](CO)C(=O)N[C@@H](CCC(=O)O)C(=O)N[C@@H](Cc1cccs1)C(=O)N[C@@H](CC(N)=O)C(=O)N[C@@H](CC(C)C)C(=O)N[C@@H](CC(=O)O)C(=O)N[C@@H](C)C(=O)N[C@@H](CCC(=O)O)C(=O)N[C@@H](Cc1ccccc1)C(=O)N[C@@H](CCCNC(=N)N)C(=O)N[C@@H](Cc1cnc[nH]1)C(N)=O` (H-ISE[2Thi]NLDAEFRH-NH2), the retention time turned out to be 0.533 h.
Regarding `CC[C@H](NC(=O)[C@H](CCC(=O)O)NC(=O)[C@H](CO)NC(=O)[C@@H](N)[C@@H](C)CC)C(=O)N[C@@H](CC(N)=O)C(=O)N[C@@H](CC(C)C)C(=O)N[C@@H](CC(=O)O)C(=O)N[C@@H](C)C(=O)N[C@@H](CCC(=O)O)C(=O)N[C@@H](Cc1ccccc1)C(=O)N[C@@H](CCCNC(=N)N)C(=O)N[C@@H](Cc1cnc[nH]1)C(N)=O` (H-ISE[Abu]NLDAEFRH-NH2), the retention time was 0.47 h.
In the case of `CC[C@H](C)[C@H](N)C(=O)N[C@@H](CO)C(=O)N[C@@H](CCC(=O)O)C(=O)N[C@@H](CC1CCCCC1)C(=O)N[C@@H](CC(N)=O)C(=O)N[C@@H](CC(C)C)C(=O)N[C@@H](CC(=O)O)C(=O)N[C@@H](C)C(=O)N[C@@H](CCC(=O)O)C(=O)N[C@@H](Cc1ccccc1)C(=O)N[C@@H](CCCNC(=N)N)C(=O)N[C@@H](Cc1cnc[nH]1)C(N)=O` (H-ISE[Cha]NLDAEFRH-NH2), the retention time is 0.592 h.
